Patent US11213527B2, “Inhibitory effect of low molecular weight compound on cancer and fibrosis” (NATIONAL UNIVERSITY CORPORATION TOTTORI UNIVERSITY, priority 2014, dated 2022)

Key:
Type in all cases: cell-based, human
CD44^high DLD-1 cells = test: Inhibitory effect on cancer stem cells in colon cancer (CD44 FACS); settings: IC-2 50 μM, 5-FU 0.5, 5 μM, 48 hours, vs control
Method: First, 1×10^6 DLD-1 cells were seeded on a 10-cm dish. After 24 hours, the cells were treated with 5-FU (0.5, 5 μM) or IC-2 (50 μM). After additional 48 hours, the cells were harvested. An anti-human CD44 antibody (Abcam Ltd., Cambridge, UK) was used as a primary antibody and an Alexa 488-labeled goat anti-mouse IgG antibody (Life Technologies Corp., Carlsbad, Calif., USA) was then used. After that, analysis was performed by using a MoFlo XDP (Beckman Coulter Inc., Fullerton, Calif.).

[1] = test system: liver cancer cell line HepG2 (EpCAM); test: FACS analysis of EpCAM-expressing cells; settings: 0.5 μM 5-FU, 50 μM IC-2, two days, DMSO 76.2%
Method: A liver cancer cell line HepG2 was seeded at 1.5×10^6 cells/dish on 10-cm dishes. Next, the cells were cultured at 37° C. and 5% CO2. After 24 hours, 1% DSMO, 0.5 μM 5-FU, or 50 μM IC-2 was added thereto and the cells were further incubated. Then, the cells were harvested at two days after the chemical treatment. Meanwhile, the cells were blocked in 0.5% BSA/0.5% FBS/2 mM EDTA/PBS. Subsequently, 0.3 μL of an anti-human EpCAM monoclonal antibody (Cell Signaling Technology Inc., Danvers, Mass., USA) was added to 500 μL of a cell suspension and the resulting mixture was resuspended and incubated at 4° C. for 10 min to carry out a primary antibody reaction. After the primary antibody reaction, the cells were washed 3 times with 1 mL of PBS. After 1.0 μg of an Alexa 488-labeled goat anti-mouse IgG antibody (Life Technologies Corp., Carlsbad, Calif., USA) was added, the mixture was resuspended and a secondary antibody reaction was performed in a dark room for 10 min at 4° C. Thereafter, the cells were washed twice with 5% FBS/2 mM EDTA/PBS and once with 5% FBS/2 mM EDTA/DEME. Next, the cells were resuspended in 500 μL of 5% FBS/2 mM EDTA/PBS. Then, 1 μg/mL of propidium iodide was added thereto. After that, the mixture was made to pass through a tube with a 40-μm mesh filter. Finally, a Beckman Coulter-MoFlo XDP was used to analyze EpCAM-expressing cells.

[2] = test system: CD44-expressing HSC2 cells; test: Inhibitory effect on cancer stem cells in squamous cell carcinoma (CD44 FACS); settings: 5-FU 0.5 μM, IC-2 25 μM, PN-3-13 7.5 μM, HC-1 50 μM, 48 hours, no treatment 83.9%
Method: First, 5×10^5 of HSC2 cells were plated on a 10-cm dish. After 24 hours, the cells were treated with 5-FU (0.5 μM), IC-2 (25 μM), PN-3-13 (7.5 μM), or HC-1 (50 μM). Also, some of the cells were prepared without low-molecular-weight compound treatment (0 μM). After additional 48 hours, the cells were harvested. An anti-human CD44 antibody (Abcam Ltd., Cambridge, UK) was used as a primary antibody and an Alexa 488-labeled goat anti-mouse IgG antibody (Life Technologies Corp., Carlsbad, Calif., USA) was then used. After that, analysis was performed by using a cell sorter, BD bioscience FACS Aria (BD Biosciences, CA, USA). Note that the concentration of each low-molecular-weight compound was determined on the basis of the IC50 concentration at 48 hours in a WST assay.

[3] = test system: CD44-positive HuH7 cells (cancer stem cells); test: Inhibitory effect on cancer stem cells (FACS analysis, CD44); settings: IC-2 50 μM, PN3-13 10 μM, 5-FU 0.5 μM, two days, vs DMSO control
Method: The following protocol was used to investigate an inhibitory effect of each low-molecular-weight compound on cancer stem cells. CD44, a cancer stem cell marker, was used as an index. HuH7 cells at 70 to 90% confluency were collected and 1.5×10^6 cells were seeded on a 10-cm dish (TPP Techno Plastic Products AG, Trasadingen, Switzerland). After 15 hours, the cells were treated with each of Hexachlorophene (15 μM), ICG-001 (15 μM), PKF118-310 (5 μM), IC-2 (50 μM), PN3-13 (10 μM), and 5-FU (0.5 μM) and were incubated at 37° C. DMSO, which was a solvent for each of the low-molecular-weight compounds and anti-cancer drugs, was used as a control. Two days after the chemical treatment, the cells on a dish were collected. Next, the cells were centrifuged at 1000 rpm for 5 min at 4° C. to remove a supernatant. Then, the cells were washed twice with 1 mL of 0.5% FBS/2 mM EDTA/PBS. After that, the cells were suspended in 500 μL of 5% BSA/0.5% FBS/2 mM EDTA/PBS and blocked once for 15 min at 4° C.
Next, 5 μL of an anti-human CD44 monoclonal antibody (Cell Signaling Technology Inc., Danvers, Mass., USA) was added. Then, the cells were suspended and a primary antibody reaction was performed in a dark room for 10 min at 4° C. After that, the cells were washed 3 times with 1 mL of PBS. […] Note that a significant difference was evaluated by using Student's t-test (two-tailed). […]

Structure (SMILES) | proportion of CD44^high cells (CD44^high DLD-1 cells) | proportion of the EpCAM-expressing cells [1] | proportion of CD44-expressing cells [2] | number of cancer stem cells (CD44-positive cells) [3]
O=c1[nH]cc(F)c(=O)[nH]1 [5-FU, reference compound] | rather increased the proportion | 81.4% | 83.3% | rather increased the number of cancer stem cells
O=C1[C@H](Cc2ccccc2)N2C(=O)CCN(C(=O)NCc3ccccc3)[C@H]2CN1Cc1cccc2ccccc12 [IC-2] | significantly decreased the proportion of CD44^high cells | 51.1% | 71.4% | significantly less than that of the control
